Data set [1] in a line: Thermodynamic solubility, shake-flask, 10 mM PBS (0.15 M KCl) pH 7, 25 °C, 1 h, HPLC-UV. Particulars: pH 7, 25 °C; for solubility at 1 h: 25 °C, pH 7, aqueous buffer, thermodynamic from solid; for Classification (GSK guidelines): solubility class. Here is the method:
Its measurement only requires an initial DMSO stock solution which is precipitated by the addition of an aqueous phase.[23],[24] Here, we measured thermodynamic solubility, often determined in late lead optimization, which efficiently considers the solubility value when the equilibrium with the stable phase or polymorph has been reached.
Solubility was determined in 10 mM PBS (0.15 M KCl) at pH 7, 25 °C. A 1–2 mg sample of each molecule was added to the same quantity (1–2 mL) of the mentioned buffer to obtain 1 mg/mL solutions in the vial. Samples were then submitted to 25 °C and magnetic stirring (500 rpm) for 1 h. After this period, solutions or suspensions were filtered through the 0.45 μm membrane pore and diluted with buffer, 10 mM PBS (0.15 M KCl). The amount of dissolved compound in each sample was then quantified, in duplicate, via HPLC using ultraviolet (UV) spectrometric detection.
Variable volumes of pure DMSO (0–100 μL) were added separately to small and defined (1 mg) quantities of each compound to obtain clear solutions. […] Afterward, 5% DMSO 10 mM PBS (0.15 M KCl) was added until the suspensions or precipitations were redissolved, to render clear solutions. As soon as solutions were obtained, they were used as mother solutions for the performance of 5–10 point calibration curves with serial buffer dilutions (1:1; v/v) 5% DMSO 10 mM PBS (0.15 M KCl). Calibration points were then measured via HPLC-UV.
The mobile phase consisted of a solution of acetonitrile (ACN) and 20 mM ammonium acetate buffer (AAB), pH 7, freshly prepared. A 10 μL volume of each sample (volume of injection) was injected at an isocratic 1 mL/min flow rate analyzed at 30 °C (oven temperature). Solubility determination of each compound required a specific HPLC method. Settings are collected in Table S11 (PROTACs) and Table S10 (building blocks).
Injections were performed in duplicate for each molecule’s calibration points. The retention time and area under the curve (AUC in absorbance units) were collected, and the average was calculated. The AUC average (y-axis) was plotted versus theoretical concentration (mg/mL; x-axis) to obtain a calibration curve for each molecule. Correlation equations and coefficients (R^2) were efficiently calculated for each compound (Table S12 for PROTACs and Table S10 for building blocks). Samples were then injected in duplicate, and the AUC averages and standard deviations were calculated. Finally, the absorbance averages were interpolated into the corresponding equations, extracting the final solubility values with their standard deviation, after dilution factor corrections.

Data set [2] is described as follows: physchem. The conditions noted are these: for chromatographic logD: pH 7. The procedure: PROTAC experimental solubility was first correlated with lipophilicity descriptors (log P is implemented in the general solubility equation (GSE)[27]). As described by some of us,[16] BRlogD represents a validated,[28] very useful and straightforward chromatographic descriptor for the logarithm of the distribution coefficient in the n-octanol/water system (log D) of neutral and cationic bRo5 molecules.
The mobile phase consisted of an isocratic solution of 20 mM ammonium acetate (pH 7.0) and acetonitrile, 40–60%, respectively (v/v).[16] Samples were dissolved in buffer/ACN and injected into the XBridge column at a flow rate of 1.0 mL/min at 30 °C. Retention times were determined in duplicate, and the dead time, t0, was recorded as the baseline disturbance.

For data set [3] the following is noted: pH 7.0, extrapolated to 0% acetonitrile. The procedure:
The logarithm of the capacity factor of an IAM column system, extrapolated at 100% water (log kw^IAM), is also an experimental descriptor of the lipophilicity of drugs since it mimics the interaction between the polar heads of the membrane phospholipids and the drug in solution.[29]
The mobile phase consisted of a solution of 20 mM ammonium acetate (pH 7.0) in a mixture with acetonitrile at various percentages (from 10 to 50%, v/v). Samples were dissolved in buffer/ACN and injected into the previously mentioned IAM column at a flow rate of 1.0 mL/min at 30 °C. Chromatographic retention data were determined in duplicate for the different mobile phase conditions. Data were recorded as log k′ (capacity factor k′ = [tR – t0]/t0), where tR and t0 are the retention times of the sample and a nonretained molecule (citric acid), respectively. Thus, log kw^IAM values were calculated by an extrapolation method of the experimental equation, at 0% acetonitrile. Moreover, five gold standard compounds (caffeine, carbamazepine, ketoprofen, theobromine, and toluene) were checked daily.

The conditions of data set [4]: log kw^IAM – clog kw^IAM. The procedure:
Since polarity is a molecular property often related to solubility,[13] experimental descriptors of polarity (Δ log kw^IAM and EPSA) were also determined. Introduced by Grumetto in 2012,[30] Δ log kw^IAM is the difference between the experimental log kw^IAM and the value expected for neutral analytes with a zero value of polar surface area (which depends on the experimental measurement of the n-octanol partition coefficient[31]). EPSA quantifies the polarity of a molecule using a supercritical fluid chromatographic (SFC) method.[32]

A short description of data set [5]: pKa determination by potentiometry (SiriusT3). The conditions noted are these: for Ionization state at pH 7: experimental. The procedure: Solids were weighed with a Sartorius Entris224-1S Analytical (www.sartorius.com). pKa values were measured with a SiriusT3 instrument (Sirius Analytical Instruments) equipped with a reference pH electrode (Ag/AgCl double junction) and a turbidity detector. Ultrasonic cleaner, obtained from VWR Chemicals (www.vwr.com), and an IKA VORTEX 3 (www.ika.com) were used to avoid precipitation in the calibration points. Stirring and heating were provided by magnetic and heating plates C-MAG MS 7 and IKA ETS-D5, respectively (www.ika.com). Moreover, pH was measured with a Eutech pH Meter 2700 (www.fishersci.com). Analyses were carried out by high-performance liquid chromatography (HPLC; DIONEX Ultimate 3000, Thermo Scientific Inc.) provided with an RS diode array and Chromeleon 7.2.10 software (www.thermofisher.com). HPLC columns IAM.PC.DD2 (300 Å, 10 μm, 10 cm × 4.6 mm) from REGIS and XBridge Shield RP18 (130 Å, 5 μm, 5 cm × 4.6 mm) from Waters (www.waters.com) were used. Ergonomic high-performance single-channel variable volume pipettors, HPLC 1.5 mL vials, 0.1 mL microinsert, and PP 9 mm screw caps were obtained from VWR Signature. EPSA analyses were performed by supercritical fluid chromatography (SFC; JASCO SFC-4000, Jasco Europe srl), provided with a diode array and ChromNAV 2.04.00 software (www.jascoweb.com). The SFC column Chirex 3014 (S)-VAL and (R)-NEA (100 Å, 5 μm, 25 cm × 4.6 mm) from Phenomenex was used.
Acidic dissociation constants of pomalidomide, S,R,S-AHPC HCl, and S,S,S-AHPC 2HCl were measured potentiometrically. Titrations were performed to 0.15 M KCl sample solutions under a nitrogen atmosphere at 25 ± 1 °C. Moreover, standardized 0.5 M KOH and 0.5 M HCl were used as titration reagents (solutions were prepared from Titrisol (Merck) concentrated solutions).[45]

Where [6] appears, read: Exp.LogS, PROTAC pairs and building blocks.
The mark [7] stands for this setting: Solubility average, thermodynamic, shake-flask, 1 h.

Structures are written as SMILES.

These results are taken from PMC9574862, “Designing Soluble PROTACs: Strategies and Preliminary Guidelines” (Journal of Medicinal Chemistry, 2022).

Broadly, the solubility is how much of the substance goes into solution per volume. What is called chromatographic logD is lipophilicity estimated from chromatographic retention. In the case of `COc1cc(C(=O)NC2CCN(C)CC2)ccc1Nc1ncc(C(F)(F)F)c(Oc2cccc3c2C(=O)CC3)n1` [BI-4464], in data set [1] (setting [6]), the concentration in solution (solubility at 1 h) was 64.6 µM. For the same compound, the chromatographic logD in data set [2] was found to be 1.79. Also, the “Log kw IAM” value in data set [3] was 1.84. The “ΔLog kw IAM” value in data set [4] is reported as 1.23.
Consider `COc1cc(-c2cn(C)c(=O)c3cc(C(=N)NC4CCS(=O)(=O)CC4)sc23)ccc1OCC(=O)NCCCCNC(=O)COc1cccc2c1C(=O)N(C1CCC(=O)NC1=O)C2=O` (stereo not drawn) [BRD9 degrader-1], for which the solubility at 1 h was 661 µM in data set [1] (setting [7]); 661 µM in data set [1] (Solubility log S, Table S-3); 600 µg/mL in data set [1] (Solubility, Table S-3). Further, the “Classification (GSK guidelines)” value in data set [1] is listed as “High (> 200 μM) (High (> 200 μM))”. Also, the “ΔLog kw IAM” value in data set [4] was “high”.
With `Cc1ncsc1-c1ccc(CNC(=O)[C@@H]2C[C@@H](O)CN2C(=O)[C@@H](NC(=O)COCCOCCOCCOCCOCCOCC(=O)N[C@H](C(=O)N2C[C@H](O)C[C@H]2C(=O)NCc2ccc(-c3scnc3C)cc2)C(C)(C)C)C(C)(C)C)cc1` [CM11], the solubility at 1 h is 631 µM in data set [1] (setting [7]); 631 µM in data set [1] (Solubility log S, Table S-3); 730 µg/mL in data set [1] (Solubility, Table S-3). Also, in data set [1], the “Classification (GSK guidelines)” value is on record as “High (> 200 μM) (High (> 200 μM))”. In addition, in data set [4], the “ΔLog kw IAM” value is recorded as “high”.
As for `Cc1ncsc1-c1ccc(CNC(=O)[C@@H]2C[C@H](O)CN2C(=O)[C@@H](NC(=O)COCCOCCOCCOCCOCCOCC(=O)N[C@H](C(=O)N2C[C@@H](O)C[C@H]2C(=O)NCc2ccc(-c3scnc3C)cc2)C(C)(C)C)C(C)(C)C)cc1` [CMP98], the solubility at 1 h is 331 µM in data set [1] (setting [7]); 331 µM in data set [1] (Solubility log S, Table S-3); 390 µg/mL in data set [1] (Solubility, Table S-3). Also, the “Classification (GSK guidelines)” value in data set [1] is reported as “High (> 200 μM) (High (> 200 μM))”. Moreover, in data set [4], the “ΔLog kw IAM” value is given as “high”.
The compound `CC(=O)N1c2ccc(-c3ccc(C(=O)O)cc3)cc2[C@H](Nc2ccc(Cl)cc2)C[C@@H]1C` [I-BET726] gave a solubility at 1 h in data set [1] (setting [6]) of 60.3 µM. The chromatographic logD in data set [2] amounted to 0.3. The “Log kw IAM” value in data set [3] was 1.88. Besides, the “ΔLog kw IAM” value in data set [4] was 2.64.
`Cc1sc2c(c1C)C(c1ccc(Cl)cc1)=N[C@@H](CC(=O)O)c1nnc(C)n1-2` [JQ1 carboxylic acid] had a solubility at 1 h in data set [1] (setting [6]) greater than 2510 µM. Further, in data set [2], the chromatographic logD amounted to 0.08. In addition, in data set [3], the “Log kw IAM” value is 0.80. Further, the “ΔLog kw IAM” value in data set [4] is on record as 1.76.
In the case of `Nc1cccc2c1C(=O)N(C1CCC(=O)NC1=O)C2=O` (stereo not drawn) [Pomalidomide], in data set [1] (setting [6]), the concentration in solution (solubility at 1 h) was 36.3 µM. Besides, the BRlogD in data set [2] (pH 7.0) was 1.41. The “Log kw IAM” value in data set [3] was 0.91. Also, the “ΔLog kw IAM” value in data set [4] is 0.64. Moreover, the “Experimental pKa (2-12)” value in data set [5] (0.15 M KCl, 25 °C, (b) = basic) was “Not ionizable”. Further, the figures for the “Ionization state at pH 7” value in data set [5] and in data set [5] (listed as pomalidomide) were “Neutral” and “not ionized”, respectively.
For `Cc1ncsc1-c1ccc(CNC(=O)[C@@H]2C[C@@H](O)CN2C(=O)[C@@H](N)C(C)(C)C)cc1.Cl` [S,R,S-AHPC HCl], the solubility at 1 h in data set [1] (setting [6]) is 2090 µM. The chromatographic logD in data set [2] was found to be 0.56. Also, the “Log kw IAM” value in data set [3] is recorded as 1.83. Besides, in data set [4], the “ΔLog kw IAM” value came to 2.34.
Turning to `Cc1ncsc1-c1ccc(CNC(=O)[C@@H]2C[C@H](O)CN2C(=O)[C@@H](N)C(C)(C)C)cc1.Cl.Cl` [S,S,S-AHPC 2HCl], in data set [1] (setting [6]), the solubility at 1 h is 2040 µM. In data set [2], this compound gave a chromatographic logD of 0.91. In data set [3], the “Log kw IAM” value is given as 1.86. For the same compound, the “ΔLog kw IAM” value in data set [4] was determined as 2.05.
